From ChEMBL document CHEMBL1201862, “PubChem BioAssay data set” (2004)
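Growth conditions: 96-well plates. Treatment: test compound, 48 hours, 5 concentrations. Analysis: linear interpolation between bracketing concentrations; unreached endpoints set to highest concentration. Abbreviation: GI50, concentration required for 50% inhibition of growth.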 The source made the active and inactive calls. No stated cut-off is given here; in the data, active = GI50 up to about 1.1 µM and inactive = higher.

How the values were obtained:
Experiment in all cases: growth of human tumour cells (NCI), 48 h
BT-549 = test system: BT-549
OVCAR-3 = test system: OVCAR-3
Malme-3M = test system: Malme-3M
RPMI-8226 = test system: RPMI-8226
MOLT-4 = test system: MOLT-4
OVCAR-4 = test system: OVCAR-4
PC-3 = test system: PC-3
HL-60 = test system: HL-60
EKVX = test system: EKVX
MDA-MB-435 = test system: MDA-MB-435
HOP-92 = test system: HOP-92
U-251 = test system: U-251
M14 = test system: M14
K562 = test system: K562
HCT-116 = test system: HCT-116
786-0 = test system: 786-0
Hs-578T = test system: Hs-578T
SK-MEL-2 = test system: SK-MEL-2
MDA-N = test system: MDA-N
UO-31 = test system: UO-31

SMILES	GI50 (BT-549)	GI50 (OVCAR-3)	GI50 (Malme-3M)	GI50 (RPMI-8226)	GI50 (MOLT-4)	GI50 (OVCAR-4)	GI50 (PC-3)	GI50 (HL-60)	GI50 (EKVX)	GI50 (MDA-MB-435)	GI50 (HOP-92)	GI50 (U-251)	GI50 (M14)	GI50 (K562)	GI50 (HCT-116)	GI50 (786-0)	GI50 (Hs-578T)	GI50 (SK-MEL-2)	GI50 (MDA-N)	GI50 (UO-31)
CC(C)CNC(=O)O	> 100 µM (inactive)	> 100 µM (inactive)	> 100 µM (inactive)	> 100 µM (inactive)	> 100 µM (inactive)	> 100 µM (inactive)	> 100 µM (inactive)	> 100 µM (inactive)	> 100 µM (inactive)	> 100 µM (inactive)	> 100 µM (inactive)	> 100 µM (inactive)	> 100 µM (inactive)	> 100 µM (inactive)	> 100 µM (inactive)	> 100 µM (inactive)	> 100 µM (inactive)	> 100 µM (inactive)	> 100 µM (inactive)	> 100 µM (inactive)
Oc1ccc2ccccc2c1/C=C/c1ccc2c(Br)cc(Br)c(O)c2n1	12.3 µM (inactive)	2.49 µM (inactive)	12.7 µM (inactive)	4.06 µM (inactive)	1.59 µM (inactive)	9.82 µM (inactive)	4.57 µM (inactive)	2.87 µM (inactive)	3.11 µM (inactive)	11.8 µM (inactive)	11.5 µM (inactive)	4.54 µM (inactive)	7.38 µM (inactive)	3.11 µM (inactive)	2.96 µM (inactive)	5.2 µM (inactive)	12.6 µM (inactive)	8.34 µM (inactive)	9.71 µM (inactive)	4.05 µM (inactive)
COC(=O)C1=NN2c3ccccc3CN([C@@H](C)c3ccccc3)C(=O)[C@@H]2C1	24.6 µM (inactive)	30.8 µM (inactive)	23.1 µM (inactive)	24.5 µM (inactive)	15 µM (inactive)	13.3 µM (inactive)	31.4 µM (inactive)	23.9 µM (inactive)	24.6 µM (inactive)	16.6 µM (inactive)	34.4 µM (inactive)	40.7 µM (inactive)	16.5 µM (inactive)	21.8 µM (inactive)	32.4 µM (inactive)	41.2 µM (inactive)	41.1 µM (inactive)	28.7 µM (inactive)	28.3 µM (inactive)	17.5 µM (inactive)
CC[C@H](C)C1=C(O)[N@+]2([O-])Oc3ccc(-c4c(O)c(O)c(-c5ccc(OC(C)=O)cc5)c(OC(C)=O)c4OC(C)=O)cc3O[C@]2([C@@H](C)CC)C(=O)N1O	32.7 µM (inactive)	16.4 µM (inactive)	17.1 µM (inactive)	12.8 µM (inactive)	12.7 µM (inactive)	8.79 µM (inactive)	34 µM (inactive)	15.2 µM (inactive)	> 50 µM (inactive)	27.9 µM (inactive)	11.6 µM (inactive)	18.6 µM (inactive)	27.6 µM (inactive)	12.3 µM (inactive)	9.86 µM (inactive)	21.4 µM (inactive)	39.2 µM (inactive)	> 50 µM (inactive)	34 µM (inactive)	> 50 µM (inactive)
Oc1c(C2=N[C@H]3CCCC[C@@H]3N2)ccc2ccccc12	> 100 µM (inactive)	> 100 µM (inactive)	> 100 µM (inactive)	> 100 µM (inactive)	> 100 µM (inactive)	> 100 µM (inactive)	> 100 µM (inactive)	> 100 µM (inactive)	> 68.2 µM (inactive)	> 100 µM (inactive)	> 100 µM (inactive)	> 100 µM (inactive)	> 100 µM (inactive)	> 100 µM (inactive)	> 100 µM (inactive)	> 100 µM (inactive)	> 100 µM (inactive)	> 100 µM (inactive)	> 100 µM (inactive)	> 100 µM (inactive)
COc1cc(C=C2N=C(c3ccccc3)N(n3c(-c4ccccc4)nc4ccccc4c3=O)C2=O)cc(OC)c1OC	16.4 µM (inactive)	21.3 µM (inactive)	19.3 µM (inactive)	> 10 µM (inactive)	30 µM (inactive)	27.4 µM (inactive)	31.1 µM (inactive)	49.1 µM (inactive)	23.8 µM (inactive)	24.3 µM (inactive)	14.5 µM (inactive)	> 10 µM (inactive)	27.2 µM (inactive)	45.8 µM (inactive)	22.2 µM (inactive)	21.8 µM (inactive)	15.8 µM (inactive)	21.1 µM (inactive)	29 µM (inactive)	31 µM (inactive)
CC(=N\N)/C(C)=N/N=C(C)/C(C)=N/N=C(C)/C(C)=N/N	> 100 µM (inactive)	> 100 µM (inactive)	> 100 µM (inactive)	> 100 µM (inactive)	0.1 µM (active)	> 100 µM (inactive)	> 100 µM (inactive)	28.5 µM (inactive)	> 100 µM (inactive)	> 100 µM (inactive)	> 100 µM (inactive)	> 100 µM (inactive)	> 100 µM (inactive)	> 100 µM (inactive)	> 100 µM (inactive)	> 100 µM (inactive)	> 100 µM (inactive)	> 100 µM (inactive)	> 100 µM (inactive)	> 100 µM (inactive)
CC(=O)NC1C(OCc2ccccc2)OC(CO)C(O)C1OC(C)C(=O)NC(C)C(=O)NC(CCC(=O)NCCCNc1c2ccccc2nc2cccc([N+](=O)[O-])c12)C(N)=O (stereo not given)	2.74 µM (inactive)	2.34 µM (inactive)	2.21 µM (inactive)	0.59 µM (active)	3.27 µM (inactive)	5.14 µM (inactive)	0.618 µM (active)	1.26 µM (inactive)	3.57 µM (inactive)	1.16 µM (inactive)	1.99 µM (inactive)	1.6 µM (inactive)	1.97 µM (inactive)	1.17 µM (inactive)	0.263 µM (active)	2.77 µM (inactive)	6.78 µM (inactive)	1.32 µM (inactive)	1.25 µM (inactive)	2.5 µM (inactive)
O=C(c1ccccc1)c1ccc2c(c1)NC(=O)c1ccccc1SSc1ccccc1C(=O)N2	> 100 µM (inactive)	> 100 µM (inactive)	> 100 µM (inactive)	> 100 µM (inactive)	> 100 µM (inactive)	> 100 µM (inactive)	> 100 µM (inactive)	> 100 µM (inactive)	> 100 µM (inactive)	> 100 µM (inactive)	> 100 µM (inactive)	> 100 µM (inactive)	> 100 µM (inactive)	> 100 µM (inactive)	> 100 µM (inactive)	> 100 µM (inactive)	> 100 µM (inactive)	> 100 µM (inactive)	> 100 µM (inactive)	> 100 µM (inactive)
O=C1c2ccccc2C(=O)c2c(NCCNC(=O)C3CCCN3)ccc(NCCNC(=O)C3CCCN3)c21 (stereo not given)	29.9 µM (inactive)	69.8 µM (inactive)	95.9 µM (inactive)	22.6 µM (inactive)	22.1 µM (inactive)	> 100 µM (inactive)	67.9 µM (inactive)	31 µM (inactive)	> 100 µM (inactive)	55.8 µM (inactive)	41 µM (inactive)	37.2 µM (inactive)	> 100 µM (inactive)	19.2 µM (inactive)	2.65 µM (inactive)	0.219 µM (active)	37.1 µM (inactive)	> 100 µM (inactive)	46.5 µM (inactive)	31.5 µM (inactive)
C/C=C/C1OC(O)(C(C)C(O)[C@H](C)C2OC(=O)/C(OC)=C/C(C)=C/[C@@H](C)[C@@H](O)[C@@H](C)C(O)C(C)C/C(C)=C/C=C/C2OC)C[C@@H](OC2CC(O)C(OC(N)=O)C(C)O2)C1C (stereo not given in full)	< 0.01 µM (active)	< 0.0182 µM (active)	< 0.01 µM (active)	< 0.01 µM (active)	< 0.01 µM (active)	3.04 µM (inactive)	< 0.01 µM (active)	< 0.01 µM (active)	< 0.01 µM (active)	< 0.01 µM (active)	< 0.01 µM (active)	< 0.0167 µM (active)	< 0.01 µM (active)	< 0.01 µM (active)	< 0.01 µM (active)	< 0.01 µM (active)	0.889 µM (active)	< 0.01 µM (active)	< 0.01 µM (active)	< 0.01 µM (active)
CC1(C)CC(O)C2=C(O1)C(=O)c1ncccc1C2=O (stereo not given)	1.75 µM (inactive)	2.35 µM (inactive)	1.49 µM (inactive)	2.48 µM (inactive)	1.93 µM (inactive)	1.73 µM (inactive)	2.9 µM (inactive)	1.7 µM (inactive)	2.54 µM (inactive)	1.71 µM (inactive)	2.28 µM (inactive)	1.75 µM (inactive)	1.96 µM (inactive)	2.11 µM (inactive)	2.28 µM (inactive)	1.87 µM (inactive)	2.7 µM (inactive)	2.58 µM (inactive)	1.75 µM (inactive)	1.85 µM (inactive)
CC[C@](O)(CC(=O)O[C@H]1C(=O)O[C@@H]2C[C@H]3C(C)=CC(=O)[C@@H](O)[C@]3(C)[C@H]3[C@@]4(O)OC[C@]32[C@@H]1[C@@H](C)[C@H]4O)C(C)C	< 0.01 µM (active)	< 0.01 µM (active)	< 0.01 µM (active)	< 0.01 µM (active)	< 0.01 µM (active)	< 0.01 µM (active)	< 0.01 µM (active)	< 0.01 µM (active)	< 0.01 µM (active)	< 0.01 µM (active)	< 0.01 µM (active)	< 0.01 µM (active)	< 0.01 µM (active)	< 0.01 µM (active)	< 0.01 µM (active)	< 0.01 µM (active)	< 0.01 µM (active)	< 0.01 µM (active)	< 0.01 µM (active)	< 0.0122 µM (active)
